Test systems include DMS 114 small cell lung; KM20L2 colon; LXFL 529 NSCLC; RXF-631 renal; XF 498 CNS; HOP-18 NSCLC; SNB-78 CNS.
What all share (assay): NCI-60 cell line screen, 48 h

SMILES strings stand for the structures. Several values for one entry are separate records, joined by “and”; a condition that tells them apart may be missing. Equal values may be shown once.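 All cell lines were grown in 96-well plates and treated with compound for 48 hours. At the GI50, growth is halved. TGI is the concentration that stops growth completely.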

Ten molecules from PubChem BioAssay (NCI) can be followed below.

In the case of `Cc1cc(Cl)cc2c1NC(=O)C2(O)CC(=O)c1ccc(Br)cc1` (stereo unspecified), the TGI with DMS 114 small cell lung was > 100 µM; in the assay with KM20L2 colon it was > 100 µM; in the assay on LXFL 529 NSCLC, > 100 µM; in the assay on RXF-631 renal, > 100 µM; with XF 498 CNS it was 76.2 µM.
Regarding `O=C(O)c1c2c(cc3c(=O)c4ccccc4[nH]c13)CCCC2`, the TGI in the assay on HOP-18 NSCLC, with KM20L2 colon, in the assay with LXFL 529 NSCLC, with RXF-631 renal, in the assay with SNB-78 CNS and in the assay on XF 498 CNS was > 100 µM in each case.
`Cc1ccc(N2C(=O)/C(=C/c3ccc(N(CCC#N)CCC#N)cc3)N=C2COc2ccc(Cl)cc2Cl)cc1`: the TGI with DMS 114 small cell lung, in the assay with HOP-18 NSCLC, in the assay on KM20L2 colon, with LXFL 529 NSCLC, in the assay on RXF-631 renal and in the assay on SNB-78 CNS was > 100 µM each time. In addition, the TGI in the assay with XF 498 CNS was > 100 µM.
`O=C1C(Cl)=C(Cl)C(=O)N1c1ccc(Cl)c(Cl)c1Cl`: the TGI was > 100 µM in the assay on DMS 114 small cell lung; > 100 µM in the assay on HOP-18 NSCLC; > 100 µM in the assay with KM20L2 colon; 88 µM in the assay with LXFL 529 NSCLC; > 100 µM with RXF-631 renal; > 100 µM in the assay with SNB-78 CNS.
For `CCCC(O)c1cn(-c2cccc(S(=O)(=O)O)c2)nn1` (stereo unspecified), the TGI in the assay with DMS 114 small cell lung, with HOP-18 NSCLC, in the assay on KM20L2 colon, in the assay with LXFL 529 NSCLC, with RXF-631 renal and with SNB-78 CNS was > 100 µM throughout. Further, the TGI in the assay on XF 498 CNS was > 100 µM.
`Cc1ccc(SSCC(O)C(O)CSSc2ccc(C)cc2)cc1` (stereo unspecified): the GI50 in the assay on DMS 114 small cell lung is 2.07 µM and 7.05 µM; in the assay with HOP-18 NSCLC, 13.5 µM and 27.2 µM; in the assay on RXF-631 renal, 10.1 µM and 3.4 µM. The TGI in the assay with DMS 114 small cell lung is 5.14 µM and 20.4 µM; with HOP-18 NSCLC it was 31.9 µM and 53.6 µM; in the assay on KM20L2 colon it was 24.2 µM and 26.6 µM; in the assay with LXFL 529 NSCLC it was 19 µM and 22.9 µM; with RXF-631 renal, 22.2 µM and 15.7 µM; with SNB-78 CNS, 52.6 µM. Besides, in the assay with XF 498 CNS, the TGI was 26.7 µM and 31.4 µM.
As for `COC(=O)C(=O)C(C(=O)C(=O)Nc1ccccc1[N+](=O)[O-])c1nc2ccc([N+](=O)[O-])cc2[nH]c1=O` (stereo unspecified), the TGI in the assay with DMS 114 small cell lung, with HOP-18 NSCLC, in the assay on KM20L2 colon, in the assay with LXFL 529 NSCLC, with RXF-631 renal and in the assay with SNB-78 CNS was > 100 µM each time.
Regarding `CCCCCCC(=O)C/C(CCC(=O)N(Cc1ccccc1)Cc1ccccc1)=N\NC(N)=O`, the TGI in the assay with DMS 114 small cell lung, with HOP-18 NSCLC, in the assay with KM20L2 colon, in the assay with LXFL 529 NSCLC, with RXF-631 renal and in the assay on SNB-78 CNS was > 100 µM each time. For the same molecule, the TGI in the assay on XF 498 CNS was > 100 µM.
`CC(/C=C/C(=O)c1sc(C(N)=S)nc1C)=C\c1ccccc1`: the TGI in the assay on DMS 114 small cell lung was 35 µM; in the assay on HOP-18 NSCLC it was > 100 µM; in the assay with KM20L2 colon, > 100 µM; in the assay with LXFL 529 NSCLC, > 100 µM; in the assay with RXF-631 renal it was > 100 µM; in the assay with SNB-78 CNS, > 100 µM. In addition, in the assay on XF 498 CNS, the TGI is > 100 µM.
For `CCC1CCCCN1CC(C(C)=O)C(c1ccccc1)c1c(O)c2ccccc2oc1=O` (stereo unspecified), the TGI in the assay with DMS 114 small cell lung, with KM20L2 colon, with RXF-631 renal, with SNB-78 CNS and with XF 498 CNS was > 100 µM throughout.
